Data: patent US6960589B2, “Benzimidazoles that are useful in treating sexual dysfunction” (Abbott Laboratories, priority 2001, dated 2005)
“And” between values parts separate entries of the source, which are not always exact repeats. Equal entries are not always repeated.

Key:
[1] = test system: Wistar rats; test: Rat penile erection model; type: in vivo; conditions: for Induction of penile erections in rats (result in words): subcutaneous administration, doses of 0.01 μmol/kg to 0.10 μmol/kg
Description: Wistar rats were used as a primary animal model to study penile erection in vivo. All experiments were carried out between 9:00 AM and 3:00 PM in a diffusely illuminated testing room with a red light. Animals were weighed and allowed to adapt to the testing room for 60 minutes before the beginning of experiments. Rats were placed individually in a transparent cage (20×30×30 cm) after drug injection.
(L)-Ascorbic acid in saline (1 mg/mL) was used as vehicle. Twelve animals were used per dose.

[2] = test system: Male Fitch ferrets; set-up: species or system ferret; conditions: in vivo, sc
Description: Male Fitch ferrets (body weights 1.0-1.5 kg) were obtained from Marshall Farms. Ferrets were fasted overnight before experimentation. Apomorphine or a compound of the present invention was administrated subcutaneously; animals were placed individually in observation cages and the drug-induced emesis and signs of nausea were determined (by direct observation) for a period of 90 minutes following drug injection. Nausea was characterized by behaviors such as licking, gagging, backing, head burying, and intense abdominal grooming. Emesis was usually preceded by these behaviors and was characterized by rhythmic abdominal contractions which were associated with vomiting or retching movement.
Sterile saline was used as vehicle. Six animals were used per dose.

Structure (SMILES)	melting point [°C]	other results
N#Cc1cccnc1N1CCN(Cc2nc3ccccc3[nH]2)CC1 [Example 4, 2-[4-(1H-benzimidazol-2-ylmethyl)piperazin-1-yl]nicotinonitrile]	208 to 210	–
Oc1ccc(N2CCN(Cc3nc4ccccc4[nH]3)CC2)cc1 [Example 17, 4-[4-(1H-benzimidazol-2-ylmethyl)piperazin-1-yl]phenol]	206 to 209	–
O=C(N1CCCC1)n1c(CN2CCN(c3ccccn3)CC2)nc2ccccc21 [Example 9, 2-[(4-pyridin-2-ylpiperazin-1-yl)methyl]-1-(pyrrolidin-1-ylcarbonyl)-1H-benzimidazole]	120 to 121	–
CCOc1ccccc1N1CCN(Cc2nc3ccccc3[nH]2)CC1 [Example 19, 2-{[4-(2-ethoxyphenyl)piperazin-1-yl]methyl}-1H-benzimidazole]	95 to 100	–
CN(C)C(=O)n1c(CN2CCN(c3ccccn3)CC2)nc2ccccc21 [Example 10, N,N-dimethyl-2-[(4-pyridin-2-ylpiperazin-1-yl)methyl]-1H-benzimidazole-1-carboxamide]	174 to 176	–
N#Cc1ccccc1N1CCN(Cc2nc3ccccc3[nH]2)CC1 [Example 12, 2-[4-(1H-benzimidazol-2-ylmethyl)piperazin-1-yl]benzonitrile]	236 to 237	–
c1ccc(N2CCN(Cc3nc4ccccc4[nH]3)CC2)nc1 [2-[(4-pyridin-2-ylpiperazin-1-yl)methyl]-1H-benzimidazole]	–	Induction of penile erections in rats (result in words) [1]: induced statistically significant penile erections; Induction of emesis in ferrets (result in words) [2]: did not induce emesis
CN1CCc2cccc3c2[C@H]1Cc1ccc(O)c(O)c1-3 [Apomorphine, (6aR) 5,6,6a,7-tetrahydro-6-methyl-4H-dibenzo[de,g]quinoline-10,11-diol, reference compound]	–	Incidence (%) of penile erection (animals exhibiting 1 or more erections) ([1]; rats, dose 0.1 μmol/kg, observed 60 minutes after dosing): 83% and 93%
c1ccc2[nH]c(CN3CCN(c4nccs4)CC3)nc2c1 [Example 7, 2-{[4-(1,3-thiazol-2-yl)piperazin-1-yl]methyl}-1H-benzimidazole]	203 to 205	–

Second part, led by results:

melting point [°C]	Structure (SMILES)	other results
210 to 212	Fc1cccnc1N1CCN(Cc2nc3ccccc3[nH]2)CC1 [Example 28, 2-{[4-(3-fluoropyridin-2-yl)piperazin-1-yl]methyl}-1H-benzimidazole]	–
198 to 200	c1cnc(N2CCN(Cc3nc4ccccc4[nH]3)CC2)nc1 [Example 2, 2-[(4-pyrimidin-2-ylpiperazin-1-yl)methyl]-1H-benzimidazole]	–
144 to 145	Oc1ccc(N2CCN(Cc3nc4ccccc4[nH]3)CC2)nc1 [6-[4-(1H-benzimidazol-2-ylmethyl)piperazin-1-yl]pyridin-3-ol]	Induction of penile erections in rats (result in words) [1]: induced statistically significant penile erections
208 to 216	Oc1ccccc1N1CCN(Cc2nc3ccccc3[nH]2)CC1 [Example 20, 2-[4-(1H-benzimidazol-2-ylmethyl)piperazin-1-yl]phenol]	–
262 to 264	Fc1ccccc1N1CCN(Cc2nc3ccccc3[nH]2)CC1 [Example 14, 2-{[4-(2-fluorophenyl)piperazin-1-yl]methyl}-1H-benzimidazole]	–
149 to 151	C[C@H]1CN(c2ccccn2)CCN1Cc1nc2ccccc2[nH]1 [Example 25, 2-{[(2S)-2-methyl-4-pyridin-2-ylpiperazin-1-yl]methyl}-1H-benzimidazole]	–
214 to 216	CSc1ccccc1N1CCN(Cc2nc3ccccc3[nH]2)CC1 [Example 18, 2-({4-[2-(methylthio)phenyl]piperazin-1-yl}methyl)-1H-benzimidazole]	–
151 to 153	C[C@@H]1CN(c2ccccn2)CCN1Cc1nc2ccccc2[nH]1 [Example 26, 2-{[(2R)-2-methyl-4-pyridin-2-ylpiperazin-1-yl]methyl}-1H-benzimidazole]	–
207 to 209	CC1CN(c2ccccn2)CCN1Cc1nc2ccccc2[nH]1 (centres unmarked) [Example 24, 2-[(2-methyl-4-pyridin-2-ylpiperazin-1-yl)methyl]-1H-benzimidazole]	–
